# From ChEMBL document CHEMBL5465560, “Selectivity Literature for EUbOPEN Chemogenomic Library” (2024)
# Key:
# [1] = target: STE20-like serine/threonine-protein kinase (Homo sapiens, UniProt Q9H2G2); experiment: Selectivity interaction (Competition-binding assay (DiscoverX)) EUB0000229b SLK
# [2] = target: Mitogen-activated protein kinase kinase kinase 9 (Homo sapiens) (UniProt P80192); experiment: Selectivity interaction (KinomeScan (DiscoverX)) EUB0000655a MAP3K9; details: at 10 µM
# [3] = target: Casein kinase I isoform epsilon (Homo sapiens, UniProt P49674); experiment: Selectivity interaction (ProQinase) EUB0000171b CSNK1E
# [4] = target: Calcium/calmodulin-dependent protein kinase type 1G (Homo sapiens) (UniProt Q96NX5); experiment: Selectivity interaction (KinomeScan (DiscoverX)) EUB0001079a CAMK1G; details: at 1 µM
# [5] = target: T1, Serine/threonine-protein kinase TBK1 (Homo sapiens) (UniProt Q9UHD2); experiment: Selectivity interaction (Kinase panel (KiNativ target engagement assay in Jurkat cells)) EUB0001635a TBK1; type: cell-based; details: Selectivity number of off-targets 0.0, Selectivity number of targets 233.0, Source Knowledge https://www.sciencedirect.com/science/article/pii/S2451945619300674?via%3Dihub, at 1 µM
# T1 sequence (whole entry): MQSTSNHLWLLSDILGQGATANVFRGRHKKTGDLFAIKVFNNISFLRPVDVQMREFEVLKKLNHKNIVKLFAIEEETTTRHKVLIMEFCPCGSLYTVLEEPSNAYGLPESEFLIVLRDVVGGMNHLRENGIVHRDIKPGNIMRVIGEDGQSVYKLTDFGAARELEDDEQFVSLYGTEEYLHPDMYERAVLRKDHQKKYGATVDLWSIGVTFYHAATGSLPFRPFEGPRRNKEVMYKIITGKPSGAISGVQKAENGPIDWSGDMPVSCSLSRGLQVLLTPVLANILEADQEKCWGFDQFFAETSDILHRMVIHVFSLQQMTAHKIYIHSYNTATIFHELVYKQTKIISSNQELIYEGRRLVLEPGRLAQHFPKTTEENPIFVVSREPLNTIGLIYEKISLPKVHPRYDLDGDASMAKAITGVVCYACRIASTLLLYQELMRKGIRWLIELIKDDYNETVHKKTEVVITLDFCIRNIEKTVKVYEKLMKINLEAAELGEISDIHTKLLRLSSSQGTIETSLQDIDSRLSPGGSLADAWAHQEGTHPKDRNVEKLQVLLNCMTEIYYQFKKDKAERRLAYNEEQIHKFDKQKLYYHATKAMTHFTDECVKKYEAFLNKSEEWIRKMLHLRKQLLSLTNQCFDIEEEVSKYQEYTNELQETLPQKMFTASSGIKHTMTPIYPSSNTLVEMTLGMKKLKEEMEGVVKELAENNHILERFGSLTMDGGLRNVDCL
# [6] = target: Cyclin-dependent kinase 8 (Homo sapiens, UniProt P49336); details: at 10 µM
# [7] = target: Activin receptor type-1-like (Homo sapiens) (UniProt P37023); details: at 10 µM
# [8] = target: Protein kinase C theta type (Homo sapiens, UniProt Q04759); details: at 10 µM
# [9] = target: Mitogen-activated protein kinase kinase kinase 10 (Homo sapiens) (UniProt Q02779); details: at 10 µM
# [10] = target: T2, Scaffold protein ILK (Homo sapiens) (UniProt Q13418); experiment: Selectivity interaction (ActivX KiNativ screen (kinase selectivity in THP-1 cell lysates)) EUB0000639a ILK; type: subcellular; details: lysate, at 0.01 µM
# T2 sequence (whole entry): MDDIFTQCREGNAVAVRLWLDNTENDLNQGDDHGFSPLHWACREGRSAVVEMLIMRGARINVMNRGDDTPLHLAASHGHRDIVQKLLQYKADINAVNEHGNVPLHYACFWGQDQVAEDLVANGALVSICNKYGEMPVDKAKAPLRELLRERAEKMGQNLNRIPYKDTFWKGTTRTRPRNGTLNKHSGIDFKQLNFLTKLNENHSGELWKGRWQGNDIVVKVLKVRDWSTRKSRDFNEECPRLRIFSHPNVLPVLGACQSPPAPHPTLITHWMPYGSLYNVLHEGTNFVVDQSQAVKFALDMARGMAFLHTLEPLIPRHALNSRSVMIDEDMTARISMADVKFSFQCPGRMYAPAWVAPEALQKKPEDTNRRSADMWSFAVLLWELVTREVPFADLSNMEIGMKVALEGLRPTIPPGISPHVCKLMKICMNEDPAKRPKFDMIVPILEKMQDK
# [11] = target: Tyrosine-protein kinase ABL2 (Homo sapiens, UniProt P42684); experiment: Selectivity interaction (ActivX KiNativ screen (kinase selectivity in THP-1 cell lysates)) EUB0000639a ABL2; type: subcellular; details: lysate, at 0.04 µM
# [12] = target: Acetylcholinesterase (Homo sapiens) (UniProt P22303); experiment: Selectivity interaction (Panel of non-epigenetic targets (kinases, GPCRs, ion channels, and transporters, Eurofins) ) EUB0000271b ACHE; details: at 1 µM
# Sequence of Acetylcholinesterase (Homo sapiens) (P22303 whole entry): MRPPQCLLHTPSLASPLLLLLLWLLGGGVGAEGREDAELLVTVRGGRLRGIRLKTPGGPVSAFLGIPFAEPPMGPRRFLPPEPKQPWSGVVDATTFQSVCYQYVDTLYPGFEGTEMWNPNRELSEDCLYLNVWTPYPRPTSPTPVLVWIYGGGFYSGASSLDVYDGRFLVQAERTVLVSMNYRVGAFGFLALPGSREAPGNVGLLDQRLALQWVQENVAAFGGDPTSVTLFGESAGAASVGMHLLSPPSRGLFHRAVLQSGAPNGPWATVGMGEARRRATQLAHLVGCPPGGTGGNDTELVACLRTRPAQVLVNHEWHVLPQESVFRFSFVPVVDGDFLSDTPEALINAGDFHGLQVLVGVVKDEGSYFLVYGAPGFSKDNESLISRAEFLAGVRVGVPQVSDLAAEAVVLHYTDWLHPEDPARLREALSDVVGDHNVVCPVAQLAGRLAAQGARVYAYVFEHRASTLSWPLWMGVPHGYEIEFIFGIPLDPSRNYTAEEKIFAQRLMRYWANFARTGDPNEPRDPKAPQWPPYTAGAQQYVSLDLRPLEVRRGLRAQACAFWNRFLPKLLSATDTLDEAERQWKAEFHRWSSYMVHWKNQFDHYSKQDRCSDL
# Sequence of Casein kinase I isoform epsilon (P49674 whole entry, looked up, canonical isoform): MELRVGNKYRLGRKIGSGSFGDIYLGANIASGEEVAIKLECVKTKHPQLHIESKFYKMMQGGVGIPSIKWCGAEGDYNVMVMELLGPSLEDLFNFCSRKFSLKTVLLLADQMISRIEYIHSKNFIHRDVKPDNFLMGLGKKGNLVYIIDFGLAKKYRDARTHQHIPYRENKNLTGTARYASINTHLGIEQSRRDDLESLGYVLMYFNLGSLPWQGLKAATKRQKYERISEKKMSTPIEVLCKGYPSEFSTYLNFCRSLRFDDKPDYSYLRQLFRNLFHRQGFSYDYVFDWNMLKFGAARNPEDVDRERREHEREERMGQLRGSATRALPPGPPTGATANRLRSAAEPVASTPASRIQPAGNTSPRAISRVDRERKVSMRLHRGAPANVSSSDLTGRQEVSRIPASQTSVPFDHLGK
# Sequence of Cyclin-dependent kinase 8 (P49336 whole entry): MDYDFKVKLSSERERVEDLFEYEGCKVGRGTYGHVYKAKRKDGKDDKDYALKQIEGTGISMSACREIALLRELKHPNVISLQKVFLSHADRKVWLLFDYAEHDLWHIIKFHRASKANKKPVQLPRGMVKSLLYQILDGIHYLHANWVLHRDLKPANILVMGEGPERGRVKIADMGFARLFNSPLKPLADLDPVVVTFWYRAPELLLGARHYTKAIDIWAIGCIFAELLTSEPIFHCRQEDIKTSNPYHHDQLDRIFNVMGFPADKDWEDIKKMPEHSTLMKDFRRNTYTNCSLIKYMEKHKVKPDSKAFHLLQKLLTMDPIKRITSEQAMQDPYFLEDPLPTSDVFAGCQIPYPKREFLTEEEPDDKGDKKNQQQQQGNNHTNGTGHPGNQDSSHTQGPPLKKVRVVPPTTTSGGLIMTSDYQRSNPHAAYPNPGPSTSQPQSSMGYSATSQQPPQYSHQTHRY
# Sequence of Activin receptor type-1-like (Homo sapiens) (P37023 whole entry): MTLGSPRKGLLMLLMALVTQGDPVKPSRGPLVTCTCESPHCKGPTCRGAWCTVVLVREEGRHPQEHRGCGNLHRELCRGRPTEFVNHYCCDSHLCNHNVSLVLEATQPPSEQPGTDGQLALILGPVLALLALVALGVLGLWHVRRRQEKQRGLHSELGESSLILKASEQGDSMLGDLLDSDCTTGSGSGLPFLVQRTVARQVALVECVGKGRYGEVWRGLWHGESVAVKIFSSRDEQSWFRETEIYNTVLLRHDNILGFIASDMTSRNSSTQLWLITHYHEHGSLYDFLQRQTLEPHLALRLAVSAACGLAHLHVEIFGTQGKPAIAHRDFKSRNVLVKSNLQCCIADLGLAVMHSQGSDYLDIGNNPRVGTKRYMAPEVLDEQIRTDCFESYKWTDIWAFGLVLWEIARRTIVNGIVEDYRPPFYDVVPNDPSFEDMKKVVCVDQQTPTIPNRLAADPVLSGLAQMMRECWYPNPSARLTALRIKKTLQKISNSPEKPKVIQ
# Sequence of Protein kinase C theta type (Q04759 whole entry, looked up): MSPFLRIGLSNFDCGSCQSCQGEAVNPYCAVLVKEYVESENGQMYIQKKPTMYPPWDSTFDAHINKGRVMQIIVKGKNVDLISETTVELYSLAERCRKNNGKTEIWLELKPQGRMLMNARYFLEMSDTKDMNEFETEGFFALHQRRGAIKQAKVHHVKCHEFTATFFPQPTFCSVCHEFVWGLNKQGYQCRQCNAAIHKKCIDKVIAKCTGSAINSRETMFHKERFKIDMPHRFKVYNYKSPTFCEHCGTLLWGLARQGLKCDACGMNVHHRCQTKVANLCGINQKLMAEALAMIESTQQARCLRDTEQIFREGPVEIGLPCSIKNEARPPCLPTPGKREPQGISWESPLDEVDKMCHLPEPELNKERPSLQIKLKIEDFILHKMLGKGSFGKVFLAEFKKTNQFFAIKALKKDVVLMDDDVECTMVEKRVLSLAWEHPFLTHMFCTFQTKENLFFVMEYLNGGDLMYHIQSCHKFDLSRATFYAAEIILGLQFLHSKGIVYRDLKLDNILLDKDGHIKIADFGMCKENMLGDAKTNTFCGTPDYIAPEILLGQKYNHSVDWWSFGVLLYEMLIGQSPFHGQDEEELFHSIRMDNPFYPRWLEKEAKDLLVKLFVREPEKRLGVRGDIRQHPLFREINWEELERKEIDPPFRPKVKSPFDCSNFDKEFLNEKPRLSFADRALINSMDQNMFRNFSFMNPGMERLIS
# Sequence of STE20-like serine/threonine-protein kinase (Q9H2G2 whole entry): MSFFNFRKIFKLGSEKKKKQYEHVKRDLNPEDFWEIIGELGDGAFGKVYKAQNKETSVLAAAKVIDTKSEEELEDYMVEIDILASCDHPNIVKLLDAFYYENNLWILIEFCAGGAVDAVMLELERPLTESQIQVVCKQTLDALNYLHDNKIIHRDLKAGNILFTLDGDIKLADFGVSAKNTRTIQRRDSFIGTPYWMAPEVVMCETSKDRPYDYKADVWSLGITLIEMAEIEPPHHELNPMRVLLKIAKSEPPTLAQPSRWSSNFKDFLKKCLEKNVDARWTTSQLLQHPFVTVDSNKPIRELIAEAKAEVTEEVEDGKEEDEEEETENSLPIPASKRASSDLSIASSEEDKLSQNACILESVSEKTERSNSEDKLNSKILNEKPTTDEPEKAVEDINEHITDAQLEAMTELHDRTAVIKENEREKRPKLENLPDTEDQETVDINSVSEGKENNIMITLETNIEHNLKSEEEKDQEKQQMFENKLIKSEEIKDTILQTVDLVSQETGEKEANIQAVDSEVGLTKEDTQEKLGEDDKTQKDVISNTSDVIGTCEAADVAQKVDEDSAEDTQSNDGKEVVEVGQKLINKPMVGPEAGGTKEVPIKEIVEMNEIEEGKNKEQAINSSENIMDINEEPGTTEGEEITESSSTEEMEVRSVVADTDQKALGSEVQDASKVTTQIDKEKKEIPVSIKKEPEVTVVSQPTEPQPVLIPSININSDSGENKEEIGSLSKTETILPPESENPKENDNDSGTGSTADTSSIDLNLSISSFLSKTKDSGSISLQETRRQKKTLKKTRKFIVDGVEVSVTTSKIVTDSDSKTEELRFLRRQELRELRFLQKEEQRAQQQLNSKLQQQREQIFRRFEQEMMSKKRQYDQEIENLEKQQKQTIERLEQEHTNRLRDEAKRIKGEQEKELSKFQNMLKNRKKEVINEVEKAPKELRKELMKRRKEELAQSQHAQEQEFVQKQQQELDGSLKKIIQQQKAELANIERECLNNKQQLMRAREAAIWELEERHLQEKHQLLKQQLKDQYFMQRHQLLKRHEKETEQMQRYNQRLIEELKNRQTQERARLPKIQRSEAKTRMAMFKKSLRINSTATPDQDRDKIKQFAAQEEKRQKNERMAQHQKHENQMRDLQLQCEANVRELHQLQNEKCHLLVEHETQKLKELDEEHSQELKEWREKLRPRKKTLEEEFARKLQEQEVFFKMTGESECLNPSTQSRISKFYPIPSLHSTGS
# Sequence of Mitogen-activated protein kinase kinase kinase 9 (Homo sapiens) (P80192 whole entry, looked up, canonical isoform): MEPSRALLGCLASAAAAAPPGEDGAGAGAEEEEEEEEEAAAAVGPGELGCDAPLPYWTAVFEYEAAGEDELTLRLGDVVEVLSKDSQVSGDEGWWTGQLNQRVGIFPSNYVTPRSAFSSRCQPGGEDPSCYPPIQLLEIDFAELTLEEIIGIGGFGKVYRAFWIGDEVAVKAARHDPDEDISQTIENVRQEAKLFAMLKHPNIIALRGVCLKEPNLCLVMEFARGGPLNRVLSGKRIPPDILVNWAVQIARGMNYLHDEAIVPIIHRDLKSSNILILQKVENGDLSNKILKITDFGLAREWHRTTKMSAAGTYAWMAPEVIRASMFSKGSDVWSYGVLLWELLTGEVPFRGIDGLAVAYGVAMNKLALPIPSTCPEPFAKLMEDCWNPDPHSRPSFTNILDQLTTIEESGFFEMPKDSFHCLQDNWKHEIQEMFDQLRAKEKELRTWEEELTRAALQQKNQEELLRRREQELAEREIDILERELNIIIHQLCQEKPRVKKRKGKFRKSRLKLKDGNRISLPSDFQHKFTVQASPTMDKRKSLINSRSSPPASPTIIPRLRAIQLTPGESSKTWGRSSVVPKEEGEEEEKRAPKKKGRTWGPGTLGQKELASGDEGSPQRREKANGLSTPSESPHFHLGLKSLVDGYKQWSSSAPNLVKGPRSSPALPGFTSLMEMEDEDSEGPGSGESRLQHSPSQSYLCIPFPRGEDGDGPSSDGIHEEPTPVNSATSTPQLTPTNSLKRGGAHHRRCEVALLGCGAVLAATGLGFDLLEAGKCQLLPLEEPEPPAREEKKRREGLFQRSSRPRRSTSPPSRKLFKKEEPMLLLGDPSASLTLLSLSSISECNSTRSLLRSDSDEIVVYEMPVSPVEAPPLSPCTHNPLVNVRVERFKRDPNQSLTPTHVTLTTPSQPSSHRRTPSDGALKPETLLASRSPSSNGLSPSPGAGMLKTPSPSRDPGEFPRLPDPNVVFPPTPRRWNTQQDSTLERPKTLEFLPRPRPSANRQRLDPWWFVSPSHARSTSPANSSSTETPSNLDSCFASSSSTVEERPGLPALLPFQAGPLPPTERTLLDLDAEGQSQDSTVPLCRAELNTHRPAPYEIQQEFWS
compound,measurement,setting,value
COc1cc(N(C)c2ccnc3ccc(C(F)(F)F)cc23)cc(OC)c1OC,Kd,[1],> 10 µM
CN(C)CCOc1ccc(-c2nc(-c3ccncc3)c(-c3ccc4c(c3)CC/C4=N\O)[nH]2)cc1,% of control,[2],100%
C=CC(=O)Nc1cccc(C(=O)Nc2ccc(Nc3cc(-c4[nH]c(SC)nc4C)ccn3)cc2)c1,% of control,[3]; at 1 µM,57%
same,% of control,[3]; at 5 µM,21%
Nc1cnc(N2CCc3cc(S(=O)(=O)Nc4c(F)cc(Cl)cc4F)cc(N4CCCC4=O)c32)nc1 [TP-020n],% of control,[4],100%
C=CC(=O)Nc1ccc(C(=O)Nc2[nH]nc3c2CN(C(=O)N[C@H](CN(C)C)c2ccccc2)C3(C)C)cc1,% of engagement,[5],32.4%
Cc1cc([C@@H](C)Nc2ccccc2C(=O)O)c2nc(N3CCOCC3)cc(=O)n2c1 [AZD-6482],% of control,[6],79%
same,% of control,[7],89%
same,% of control,[8],97%
same,% of control,[9],96%
CC[C@@H]1[C@H](F)C(=O)N[C@@H]1COc1nccc2cc(C(N)=O)c(OC)cc12 [ZIMLOVISERTIB],% of inhibition,[10],3.1%
same,% of inhibition,[11],-16.4%
Cc1cc(C)cc([C@@H]2c3cc(C)ccc3NC(=O)CN2C(=O)c2ccc(Br)s2)c1,% of inhibition,[12],7%
